Results as given in US20040071799A1, “Herbal compositions and methods for effecting weight loss in humans” (priority 2001, published 2004).

Tests used:
[1] = Female Wistar rats fed high fat diet for 56 days (Example 4); assay type: in vivo
Protocol: Sixty female Wistar rats, averaging 220 g in weight, were randomly allotted to five experimental groups and fed the high fat diet described in Table I below for 56 days. The rats were housed individually in wire mesh cages equipped with an automated watering system. The room housing the rats was maintained at a temperature of 22° to 24° C., with a light-dark cycle of 12 hours each. Following the one-week quarantine period the rats were adapted to handling, and to oral insertion of the gastric intubation device over the next ten days. Water was intubated once a day during this period. After ten days, the rats no longer indicated marked distress during the procedure.
After adaption to the intubation procedure, the diet of Table I was initiated. This diet is comprised of 56% of energy from fat. All treatment and placebo intubations occurred between 1600 and 1800 hours. Individual food intake was measured daily throughout the study. Body weight was measured daily through day 23 and twice weekly thereafter. The experimental period lasted 56 days. Lin, X., M. R. Chavex, R. C. Bruch, et al., J. Nutrition 128:1606-13, 1998.
Referring to Table II below, the five groups consisted of: the control group (n=15), which were fed ad libitum, and were intubated daily with 1 mL of water. The “low dose DRD” (n=10) and the “high dose DRD” (n=15) groups, which were fed ad libitum and administered daily 1 mL of the aqueous extract obtained from 0.75 grams and 1.50 grams of the initial dried herb mixture by intubation, respectively. The “fenfluramine group” (n=10), which was fed ad libitum and received 2 mg/kg fenfluramine in 1 mL of water daily, by intubation, and, finally, a fifth group (n=10) was pair-fed to the high dose DRD group and was administered 1 mL of water daily, by intubation.
Food consumption for all rats was determined daily, and body weights were obtained daily for the first 23 days, and then twice a week for the next 33 days. After 56 days all the rats except five from the control group and five from the high dose DRD group were sacrificed. Trunk blood was collected, and the eviscerated carcasses were homogenized, dried and assayed for body composition. White and brown fat depots, liver, kidney, spleen, heart, and gastrocnemius muscle were weighed. During the 56 days of the experiment, all rats were observed daily by the animal technician, and weekly by a veterinarian, and notations were made regarding physical activity/lethargy, fur condition, skin condition, eye condition, stools, and “others.” There were no noticeable differences among any of the groups with regard to physical activity, skin condition, and eye condition. […] This behavior lasted about one week and then stopped.
The serum was analyzed for insulin, corticosterone and leptin, using standard commercially available immunoassays for the rat. Alkaline phosphatase, alanine aminotransferase, amylase, aspartate aminotransferase, chloride, cholesterol, creatinine phosphokinase, γ-glutamyl transpeptidase, glucose, hemoglobin, hematocrit, mean cell volume, platelets, potassium, sodium, triglycerides, and white blood cells were assayed by standard clinical laboratory methods. All data were pooled by treatment and subjected to a One-Way Analysis of Variance (ANOVA) followed by a Scheffe Comparison of Means analysis (for unbalanced groups). Statistix® for Windows, 1998. Analytical Software, Tallahassee, Fla. 32317.
The rats that were not sacrificed and had previously received the high dose DRD had their treatment withdrawn during a 14-day “recovery period.” On the 15th day of this recovery period these rats, plus five control rats, were sacrificed and all the above analyses were conducted.

[2] = Young growing male Wistar rats fed obesity-inducing diet, 90 days (Example 3); assay type: in vivo; settings: fenfluramine group
Protocol: Young growing male Wistar rats, of about 220 grams average initial weight, were fed the obesity-inducing diet. Concomitantly, the rats were administered, 1.0 gram DRD, 1.5 grams DRD, or 5.0 grams DRD, by daily intubation, for 90 days. The treatment groups gained 21%, 24% and 47% less weight, respectively, than did the placebo controls. The rats administered fenfluramine gained 22% less weight than did the controls.
Thus, the prevention of weight gain appears to be due to a reduction in fat storage, and that the skeletal muscle had been preserved.

[3] = in vivo; cited from earlier work
[4] = d-fenfluramine 2 mg/kg, 56 days

For `CCNC(C)Cc1cccc(C(F)(F)F)c1` (centres unmarked) [fenfluramine], the “Average Final Weight, Gms ± SD.” value [1, 4] was 325.7 ± 33.7 Gms, the “Average Gain, Gms ± SD” value [1, 4] was 106.9 ± 22.0 Gms and the “calories required to cause a one-gram weight gain” value ([1]; fenfluramine) was 18.16 calories. For the same molecule, the “food efficiency: gain in weight per calorie available for gain above maintenance” value ([1]; fenfluramine) was 0.0545 grams per calorie, the “less weight gained than controls” value ([1]; fenfluramine 2 mg/kg daily, 56th day) was 12.3% and the total food consumed ([1]; fenfluramine, 56 day period) was “consumed less total food over the 56 day period than the controls”. The “food efficiency lower than controls (grams gain per gram of food ingested)” value ([1]; fenfluramine, 56 days) was 7.8%, the “weight gained as fat (body composition)” value ([1]; fenfluramine, 56 days) was “gained significantly less fat than did the controls” and the serum leptin ([1]; fenfluramine, end of 56-day treatment) was “less leptin than controls”. For the same molecule, the “less weight gained than controls” value [2] was 22%.

For `CCCCCCCCCCC[C@@H](C[C@@H]1OC(=O)[C@H]1CCCCCC)OC(=O)[C@H](CC(C)C)NC=O` [Orlistat], the “decrease of the amount of fat absorbed from the diet” value [3] is given as “diet by 30%”.
